Reference: patent US12679878B2, “CRF2 receptor agonists and their use in therapy” (SANOFI, priority 2020, dated 2026)
Where two headings read alike, the source gives them in different places. Starred links: 1 amine or outer side, 2 acyl side, 3 side chain; linkers in the order of their positions; H or OH if unused. Non-standard residues stand in square brackets, D forms with d. Residues, ends and D or L forms follow the SMILES beside them. Groups on a side chain read outwards from the residue. *: point of attachment. C18 diacid = O=C(O)CCCCCCCCCCCCCCCCC(=O)*; γGlu = O=C(O)[C@H](CCC(=O)[*:2])N[*:1]; Palmitoyl = CCCCCCCCCCCCCCCC(=O)*; AEEA = NCCOCCOCC(=O)O; Aib = CC(C)(N)C(=O)O

Key:
CRF1R receptor = biological target: T1, CRF1R receptor (Homo sapiens, UniProt P34998); assay: cAMP activity at anti-target CRF1R, CRF1R-overexpression CHO cell line (Example 9); format: cell-based; details: CRF1R-overexpression CHO cell line; for EC50: 0% HSA; for Emax: read-out: Emax (%)
T1 construct: host or cells: CHO-K1 clone 2
T1 sequence (P34998 24-415): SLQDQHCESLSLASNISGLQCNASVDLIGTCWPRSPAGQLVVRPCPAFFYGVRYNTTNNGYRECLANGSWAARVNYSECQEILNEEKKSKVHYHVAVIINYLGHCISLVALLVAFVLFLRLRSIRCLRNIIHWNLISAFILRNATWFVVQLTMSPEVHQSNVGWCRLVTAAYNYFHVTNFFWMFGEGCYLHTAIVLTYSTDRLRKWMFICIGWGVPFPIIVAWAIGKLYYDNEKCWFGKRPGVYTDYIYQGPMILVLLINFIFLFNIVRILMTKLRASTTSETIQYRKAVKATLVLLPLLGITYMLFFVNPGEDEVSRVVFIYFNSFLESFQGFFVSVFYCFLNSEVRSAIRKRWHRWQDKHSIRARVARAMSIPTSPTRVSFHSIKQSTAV
In short: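 Using thawed CRF1R-overexpressing CHO cells at 2000 per well, compound is applied for 30 min at RT in HBSS/HEPES buffer with IBMX. Cellular cAMP content is determined via HTRF, and percent activity is calculated against 1000 nM UCN2 defined as 100%.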

[1] = Physical stability, Thioflavin T fibrillation assay (Example 14); format: physicochemical; details: 3 mg/ml, 37° C. shaking
Method: The physical stability of the compounds was assessed using a Thioflavin T (ThT) assay.
The time course for fibril formation often follows the characteristic shape of a sigmoidal curve and can be separated into three regions: a lag phase, a fast growth phase, and a plateau phase. The typical fibril formation process starts with the lag phase in which the amount of partially folded peptide turned into fibrils is not significant enough to be detected. The lag-time corresponds to the time the critical mass of the nucleus is built. Afterwards, a drastic elongation phase follows and fibril concentration increases rapidly. Therefore, by measuring the increase in fluorescence intensity attributable to ThT as well as the lag time of the increase, the fibrillation tendency of a peptide can be determined, thereby providing a measure of the physical stability of the peptide.
In the present study, test compounds were diluted in buffer to a final concentration of 3 mg/ml.
The fibrillation tendencies of the peptides were determined under stress using a Fluoroskan Ascent FL or Fluoroskan Ascent fluorometer. […] Plates were sealed with Scotch Tape (Quiagen). Samples were stressed by continuous cycles of 10 s shaking at 960 rpm and 50 s rest period at 37° C. Fibril development was monitored by measuring fluorescence intensity every 20 minutes. For each sample, eight replicates were tested.

[2] = Solubility in buffer systems by UPLC-UV (Example 13); format: physicochemical; details: pH 4.5, Solubility in Buffer B [mg/ml]
In short: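 Quantitation used UV peak area from UPLC of the 1:10-diluted supernatant, set against a reference-compound standard curve with extinction coefficients adjusted for amino acid sequence.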

human CRF2α receptor = biological target: T2, human CRF2α receptor (Homo sapiens, UniProt Q13324); assay: cAMP agonism at human CRF2 α receptor in TeloHEAC cells (Example 7); format: cell-based; details: cAMP HTRF, TeloHEAC cells stably expressing human CRF2 α
T2 construct: expressed in transfected cells; host or cells: TeloHEAC
T2 sequence (Q13324 1-411): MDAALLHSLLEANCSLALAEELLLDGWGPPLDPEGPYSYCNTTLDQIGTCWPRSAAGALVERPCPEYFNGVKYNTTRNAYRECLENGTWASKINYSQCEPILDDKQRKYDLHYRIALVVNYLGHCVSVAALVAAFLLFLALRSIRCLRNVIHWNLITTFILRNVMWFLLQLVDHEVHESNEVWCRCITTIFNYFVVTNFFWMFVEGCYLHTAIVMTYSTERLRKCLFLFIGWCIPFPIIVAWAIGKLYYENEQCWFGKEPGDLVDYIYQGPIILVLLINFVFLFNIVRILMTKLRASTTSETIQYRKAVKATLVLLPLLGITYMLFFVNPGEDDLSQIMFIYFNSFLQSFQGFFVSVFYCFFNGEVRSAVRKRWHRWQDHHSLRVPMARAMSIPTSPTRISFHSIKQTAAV
In short: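 HTRF ratio 665/620 nm, read 1 h after lysis reagents, reports cAMP. Cells: thawed stocks, 2000/well, 30 min RT with compound in HBSS, 20 mM HEPES, 0 or 0.1% HSA, 2 mM IBMX. Activity normalised to UCN2 1000 nM = 100%; EC50 from half-maximal activation.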

rat CRF2R α receptor = assay: cAMP agonism at rat CRF2R α receptor in A7R5 rat aortic smooth muscle cells (Example 8); format: cell-based; details: cAMP HTRF, A7R5 rat aortic smooth muscle cell line, 0% HSA
In short: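 Potency (EC50) is the concentration reaching half-maximal activation, with responses scaled so that 1000 nM urocortin 2 equals 100%. Intracellular cAMP was quantified by homogeneous time-resolved fluorescence at 665/620 nm, 1 h after lysis-buffer reagents. Compound stimulation lasted 30 min at room temperature on 2000 IBMX-treated (2 mM) cells per well in HEPES-buffered HBSS.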

[3] = Buffer A: 100 mM acetate buffer, pH 4.5
[4] = 0% HSA, read-out: EC50 [nM], 0% HSA
[5] = Buffer B: 100 mM acetate buffer, pH 4.5, 2.7 mg/ml m-cresol
[6] = 0.1% HSA, read-out: EC50 [nM], 0.1% HSA

Row | SMILES | EC50 (CRF1R receptor) [nM] | Emax (CRF1R receptor) [%] | Increase in FI (fluorescence intensity) [1, 3] | Lag time [1, 3] [h] | solubility at 1 h [2] [µg/mL] | EC50 (human CRF2α receptor; [4]) [nM] | Increase in FI (fluorescence intensity) [1, 5] | Lag time [1, 5] [h] | EC50 (rat CRF2R α receptor) [nM] | EC50 (human CRF2α receptor; [6]) [nM]
1 | CCCCCCCCCCCCCCCC(=O)N[C@@H](CCC(=O)NCCCC[C@H](NC(=O)[C@H](CC(C)C)NC(=O)CNC(=O)[C@@H](NC(=O)[C@@H]1CCCN1C(=O)[C@@H](NC(=O)[C@H](CC(=O)O)NC(=O)[C@H](CC(C)C)NC(=O)[C@H](CO)NC(=O)[C@H](CC(C)C)NC(=O)[C@@H](NC(=O)[C@@H](N)[C@@H](C)CC)C(C)C)C(C)C)[C@@H](C)CC)C(=O)N[C@@H](CCC(N)=O)C(=O)N[C@@H](CCCCN)C(=O)N[C@@H](CC(C)C)C(=O)N[C@@H](CC(C)C)C(=O)N[C@@H](CCCCN)C(=O)N[C@@H](CCC(N)=O)C(=O)N[C@@H](CCC(=O)O)C(=O)N[C@@H](CCCCN)C(=O)N[C@@H](CCC(N)=O)C(=O)N[C@@H](CCC(=O)O)C(=O)N[C@@H](CCCCN)C(=O)N[C@@H](CCC(=O)O)C(=O)N[C@@H](CCCCN)C(=O)N[C@@H](CCC(N)=O)C(=O)N[C@@H](CCC(N)=O)C(=O)N[C@@H](C)C(=O)N[C@@H](CCC(=O)O)C(=O)N[C@H](C(=O)N[C@@H](CC(N)=O)C(=O)N[C@@H](C)C(=O)N[C@@H](CCCCN)C(=O)N[C@H](C(=O)N[C@@H](CC(C)C)C(=O)N[C@@H](C)C(=O)N[C@@H](CCC(N)=O)C(=O)N[C@H](C(N)=O)C(C)C)[C@@H](C)CC)[C@@H](C)O)C(=O)O [compound 4] (H-IVLSLDVPIGLK([γGlu-Palmitoyl])QKLLKQEKQEKEKQQAETNAKILAQV-NH2; N-terminus assumed) | > 1000 | 17.4 | Yes | 18 | > 9600 | 0.04 | – | – | – | –
2 | CC[C@H](C)[C@H](N)C(=O)N[C@H](C(=O)N[C@@H](CC(C)C)C(=O)N[C@@H](CO)C(=O)N[C@@H](CC(C)C)C(=O)N[C@@H](CC(=O)O)C(=O)N[C@@H](C(=O)N1CCC[C@H]1C(=O)N[C@H](C(=O)NCC(=O)N[C@@H](CC(C)C)C(=O)N[C@@H](CCCCNC(=O)COCCOCCNC(=O)COCCOCCNC(=O)CC[C@H](NC(=O)CCCCCCCCCCCCCCCCC(=O)O)C(=O)O)C(=O)N[C@@H](CCC(N)=O)C(=O)N[C@H](C(=O)N[C@@H](CC(C)C)C(=O)N[C@@H](CC(C)C)C(=O)N[C@@H](CCCCN)C(=O)N[C@@H](CCC(N)=O)C(=O)N[C@@H](CCC(=O)O)C(=O)N[C@@H](CCCNC(=N)N)C(=O)N[C@@H](CCC(N)=O)C(=O)N[C@@H](CCCCN)C(=O)N[C@@H](CCCCN)C(=O)NC(C)(C)C(=O)N[C@@H](CCCNC(=N)N)C(=O)N[C@@H](CCC(=O)O)C(=O)N[C@@H](CCC(N)=O)C(=O)N[C@@H](C)C(=O)N[C@@H](CCC(=O)O)C(=O)N[C@H](C(=O)N[C@@H](CC(N)=O)C(=O)N[C@@H](CCCCN)C(=O)N[C@@H](CCCNC(=N)N)C(=O)N[C@H](C(=O)N[C@@H](CC(C)C)C(=O)N[C@@H](CCC(=O)O)C(=O)N[C@@H](CCCNC(=N)N)C(=O)N[C@H](C(N)=O)C(C)C)[C@@H](C)CC)[C@@H](C)O)[C@@H](C)CC)[C@@H](C)CC)C(C)C)C(C)C [compound 83] (H-IVLSLD[dV]PIGLK([AEEA-AEEA-γGlu-C18 diacid])QILLKQERQKK[Aib]REQAETNKRILERV-NH2; N-terminus assumed) | > 1000 | 7.51 | – | – | – | 0.07 | No | >45 | 1.83 | 2.99
3 | CC[C@H](C)[C@H](N)C(=O)N[C@H](C(=O)N[C@@H](CC(C)C)C(=O)N[C@@H](CO)C(=O)N[C@@H](CC(C)C)C(=O)N[C@@H](CC(=O)O)C(=O)N[C@@H](C(=O)N1CCC[C@H]1C(=O)N[C@H](C(=O)N[C@@H](CCCCN)C(=O)N[C@@H](CC(C)C)C(=O)N[C@@H](CCCCNC(=O)COCCOCCNC(=O)COCCOCCNC(=O)CC[C@H](NC(=O)CCCCCCCCCCCCCCCCC(=O)O)C(=O)O)C(=O)N[C@@H](CCC(N)=O)C(=O)N[C@H](C(=O)N[C@@H](CC(C)C)C(=O)N[C@@H](CC(C)C)C(=O)N[C@@H](CCC(=O)O)C(=O)N[C@@H](CCC(N)=O)C(=O)N[C@@H](CCC(=O)O)C(=O)N[C@@H](CCCNC(=N)N)C(=O)N[C@@H](CCC(N)=O)C(=O)N[C@@H](CCCCN)C(=O)NC(C)(C)C(=O)N[C@@H](CCC(N)=O)C(=O)N[C@@H](CCCNC(=N)N)C(=O)N[C@@H](CCC(N)=O)C(=O)N[C@@H](CCC(N)=O)C(=O)N[C@@H](C)C(=O)N[C@@H](CCC(=O)O)C(=O)N[C@@H](CCCCN)C(=O)N[C@@H](CC(N)=O)C(=O)N[C@@H](CCCCN)C(=O)N[C@@H](CCC(N)=O)C(=O)N[C@H](C(=O)N[C@@H](CC(C)C)C(=O)N[C@@H](C)C(=O)N[C@@H](CCC(N)=O)C(=O)N[C@H](C(N)=O)C(C)C)[C@@H](C)CC)[C@@H](C)CC)[C@@H](C)CC)C(C)C)C(C)C [compound 131] (H-IVLSLD[dV]PIKLK([AEEA-AEEA-γGlu-C18 diacid])QILLEQERQK[Aib]QRQQAEKNKQILAQV-NH2) | – | – | – | – | – | 0.11 | No | >45 | 0.39 | 2.44
4 | CC[C@H](C)[C@H](N)C(=O)N[C@H](C(=O)N[C@@H](CC(C)C)C(=O)N[C@@H](CO)C(=O)N[C@@H](CC(C)C)C(=O)N[C@@H](CC(=O)O)C(=O)N[C@@H](C(=O)N1CCC[C@H]1C(=O)N[C@H](C(=O)N[C@@H](CCCCN)C(=O)N[C@@H](CC(C)C)C(=O)N[C@@H](CCCCNC(=O)COCCOCCNC(=O)COCCOCCNC(=O)CC[C@H](NC(=O)CCCCCCCCCCCCCCCCC(=O)O)C(=O)O)C(=O)N[C@@H](CCC(N)=O)C(=O)N[C@H](C(=O)N[C@@H](CC(C)C)C(=O)N[C@@H](CC(C)C)C(=O)N[C@@H](CCC(=O)O)C(=O)N[C@@H](CCC(N)=O)C(=O)N[C@@H](CCC(=O)O)C(=O)N[C@@H](CCCNC(=N)N)C(=O)N[C@@H](CCC(N)=O)C(=O)N[C@@H](CCCCN)C(=O)NC(C)(C)C(=O)N[C@@H](CCC(N)=O)C(=O)N[C@@H](CCCNC(=N)N)C(=O)N[C@@H](CCC(=O)O)C(=O)N[C@@H](CCC(N)=O)C(=O)N[C@@H](C)C(=O)N[C@@H](CCC(=O)O)C(=O)N[C@@H](CCCCN)C(=O)N[C@@H](CC(N)=O)C(=O)N[C@@H](CCCCN)C(=O)N[C@@H](CCC(N)=O)C(=O)N[C@H](C(=O)N[C@@H](CC(C)C)C(=O)N[C@@H](CCC(=O)O)C(=O)N[C@@H](CCCNC(=N)N)C(=O)N[C@H](C(N)=O)C(C)C)[C@@H](C)CC)[C@@H](C)CC)[C@@H](C)CC)C(C)C)C(C)C [compound 132] (H-IVLSLD[dV]PIKLK([AEEA-AEEA-γGlu-C18 diacid])QILLEQERQK[Aib]QREQAEKNKQILERV-NH2) | > 1000 | 36.9 | – | – | – | 0.38 | No | >45 | 0.79 | 8.76
